Columns and labels:
Type in all cases: cell-based
[1] = target: Delta-type opioid receptor (Homo sapiens, UniProt P41143); assay: Binding affinity against Opioid receptor delta 1 expressed in CHO cells using [3H]Naltrindole as radioligand
Mu-type opioid receptor = Mu-type opioid receptor (Homo sapiens, UniProt P35372); assay: Binding affinity against Opioid receptor mu 1 expressed in CHO cells using [3H]DAMGO as radioligand
[2] = target: Kappa-type opioid receptor (Homo sapiens, UniProt P41145); assay: Binding affinity against Opioid receptor kappa 1 expressed in CHO cells using [3H]U-69593 as radioligand
Chain of Kappa-type opioid receptor (P41145 whole entry): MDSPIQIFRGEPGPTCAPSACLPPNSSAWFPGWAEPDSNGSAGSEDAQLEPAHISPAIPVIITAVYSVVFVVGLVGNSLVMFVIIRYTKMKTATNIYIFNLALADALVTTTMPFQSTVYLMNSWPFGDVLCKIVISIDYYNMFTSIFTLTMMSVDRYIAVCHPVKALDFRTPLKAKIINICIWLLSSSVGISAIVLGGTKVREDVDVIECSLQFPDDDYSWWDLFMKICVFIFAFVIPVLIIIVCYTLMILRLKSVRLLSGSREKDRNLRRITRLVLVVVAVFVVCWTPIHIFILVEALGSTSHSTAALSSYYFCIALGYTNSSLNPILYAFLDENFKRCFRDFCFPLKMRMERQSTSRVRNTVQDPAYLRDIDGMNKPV

Chain of Delta-type opioid receptor (P41143 whole entry): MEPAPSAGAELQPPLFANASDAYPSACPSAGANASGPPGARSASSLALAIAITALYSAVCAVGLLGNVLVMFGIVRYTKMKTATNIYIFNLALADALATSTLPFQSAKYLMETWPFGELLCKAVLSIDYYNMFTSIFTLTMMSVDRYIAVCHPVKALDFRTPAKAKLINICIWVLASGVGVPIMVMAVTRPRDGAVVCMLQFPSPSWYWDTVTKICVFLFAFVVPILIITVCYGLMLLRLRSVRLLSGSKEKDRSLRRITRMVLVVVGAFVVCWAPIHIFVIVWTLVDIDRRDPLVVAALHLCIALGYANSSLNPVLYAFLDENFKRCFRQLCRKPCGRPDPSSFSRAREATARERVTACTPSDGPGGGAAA
Chain of Mu-type opioid receptor (P35372 whole entry): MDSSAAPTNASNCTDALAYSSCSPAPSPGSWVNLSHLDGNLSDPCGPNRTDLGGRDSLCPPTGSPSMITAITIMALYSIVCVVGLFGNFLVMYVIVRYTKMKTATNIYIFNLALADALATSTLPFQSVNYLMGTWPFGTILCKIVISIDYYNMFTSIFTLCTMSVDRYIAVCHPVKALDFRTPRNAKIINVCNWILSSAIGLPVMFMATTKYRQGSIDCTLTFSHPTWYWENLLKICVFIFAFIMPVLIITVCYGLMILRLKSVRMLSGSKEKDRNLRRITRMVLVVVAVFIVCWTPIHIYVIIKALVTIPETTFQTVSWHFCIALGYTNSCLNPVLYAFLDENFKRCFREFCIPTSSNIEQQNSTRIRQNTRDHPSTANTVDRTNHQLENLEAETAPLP

Row | SMILES | Ki [1] [nM] | Ki (Mu-type opioid receptor) [nM] | Ki [2] [nM]
1 | COc1c(C(N)=O)ccc2c1[C@]13CCN(CC4CC4)[C@H](C2)[C@]1(O)CCC(=O)C3 | 480 | 11 | 23
2 | O=C1CC[C@@]2(O)[C@H]3Cc4ccc(O)c(O)c4[C@@]2(CCN3CC2CC2)C1 | 130 | 17 | 2.2
3 | NC(=O)c1ccc2c(c1O)[C@]13CCN(CC4CCC4)[C@H](C2)[C@]1(O)CCC(=O)C3 | 4.2 | – | 0.27
4 | NC(=O)c1ccc2c3c1O[C@H]1C(=O)CC[C@@]4(O)[C@@H](C2)N(CC2CC2)CC[C@]314 | 550 | 0.71 | 11
5 | NC(=O)c1ccc2c(c1O)[C@]13CCN(CC4CC4)[C@H](C2)[C@]1(O)CCC(=O)C3 [SAMIDORPHAN] | 2.6 | 0.052 | 0.23

Source: ChEMBL document CHEMBL1143538 (Bioorg Med Chem Lett, 2005)
